# Values of other authors in patent publication US20160081937A1, “TABLET WITH INCREASED DRUG LOAD OF ODANACATIB” (SANDOZ AG, priority 2013, published 2016).
# What was measured:
# [1] = in vivo
# [2] = crystalline odanacatib
compound,measurement,setting,value
"CC(C)(F)C[C@H](N[C@@H](c1ccc(-c2ccc(S(C)(=O)=O)cc2)cc1)C(F)(F)F)C(=O)NC1(C#N)CC1 [Odanacatib, odanacatib]",oral bioavailability,[1],"highly dependable on vehicle, dosage and sample preparation"
same,aqueous solubility,[2],low
same,"lumbar spine, hip and femoral neck BMD",patients treated once weekly with 20-50 mg,increases
same,"BMD at the same sites (lumbar spine, hip, femoral neck)",patients treated with low doses,decreases
